Source: US12209261B2, “Media for the expression of recombinant vitamin K-dependent proteins” (CSL Behring Lengnau AG, priority 2015, dated 2025)

Columns and labels:
[1] = system: CHO cells expressing FVII; assay: Determination of cell growth and viability (viable cell density, flow cytometry with propidium iodide); format: cell-based, Chinese Hamster; conditions: for impact on viable cell density (VCD): summary in description, supplement present in cell culture medium, FIGS. 1A-8A
Description: (§1) Chinese Hamster Ovary cell line that expresses recombinant human Factor VII fusion protein was created using the GS expression system (Lonza). These cells were maintained in commercially available CD-CHO AGT medium (Invitrogen) supplemented with 50 μg/L reduced menadione sodium bisulfite (rMSB) (Richman), 25 μM methionine sulfoximine (MSX) (Sigma) and 1 mg/L insulin (Novo Nordisk). Cells were grown in shake flasks maintained at 37° C. with 8% CO2 atmosphere and subcultured every 3 days to 3×10^5 cells/mL.
Cells from the exponential growth phase of the cultures (at the end of regular 3-day passages) were used for the experiments. The cells were centrifuged, appropriate amount of spent media removed and cell pellets were resuspended in remaining spent media to a cell concentration of 3×10^6 cells/mL. 50 μL of this cell suspension was used to inoculate each well of a polypropylene V-bottom square 96-deepwell plate (Corning) containing 450 μL of a cell culture media based on DMEM/F12 supplemented with different levels of reduced L-glutathione (Sigma). The reduced L-glutathione concentration ranges tested were 0.01-15 mM with a corresponding reduced L-glutathione-free negative control. All cultures contained 213 μg/L rMSB to support appropriate cellular processing of Factor VII. All liquid handling steps were performed using a Tecan Freedom EVO® 200 robotic platform.
(§2) Culture plates were sealed with a breathable membrane (Corning) to maintain sterility and cultures were maintained at 37° C. with 8% CO2 atmosphere in a shaker incubator (Kuhner) operating at 350 rpm with an oribital diameter of 25 mm.
The cell density and viability in the culture were determined offline from a sample of culture obtained at day 5 and day 7 (counted from inoculation of the culture) using a MACSQuant® Analyzer 10 flow cytometer (Miltenyi Biotec), utilizing propidium iodide (Miltenyi Biotec) for viability staining. […]
The cell density and viability were determined as described for Example 1.

[2] = system: recombinant human Factor VII fusion protein; assay: Recombinant Factor VII chromogenic activity in culture supernatants (COASET Factor VII kit); format: cell-based; conditions: for effect on chromogenic activity of FVII: supernatant at days 7, 9 and 10; for impact on yield and/or activity of FVII: summary in description, supplement present in cell culture medium during FVII expression, FIGS. 1B-8C
Description: as §1
Cells from the exponential growth phase of the cultures (at the end of regular 3-day passages) were used for the experiments. The cells were centrifuged, appropriate amount of spent media removed and cell pellets were resuspended in remaining spent media to a cell concentration of 3×10^6 cells/mL. 50 μL of this cell suspension was used to inoculate each well of a polypropylene V-bottom square 96-deepwell plate (Corning) containing 450 μL of a cell culture media based on DMEM/F12 supplemented with different levels of reduced L-glutathione (Sigma). […] All cultures contained 213 μg/L rMSB to support appropriate cellular processing of Factor VII. All liquid handling steps were performed using a Tecan Freedom EVO® 200 robotic platform.
as §2
Recombinant Factor VII chromogenic activity in the cultures were determined from serially diluted supernatant samples obtained at days 7, 9 and 10 (counted from inoculation of the culture) using a commercially available chromogenic kit COASET Factor VII kit (Chromogenix). The assay was adapted for use with the SYSMEX® CS-5100 automated hemostasis analyzer (Siemens Healthcare) and performed according to manufacturers' instructions.
Cells from the exponential growth phase of the cultures (at the end of regular 3-day passages) were used for the experiments. The cells were centrifuged, appropriate amount of spent media removed and cell pellets were resuspended in remaining spent media to a cell concentration of 3×10^6 cells/mL. 50 μL of this cell suspension was used to inoculate each well of a polypropylene V-bottom square 96-deepwell plate (Corning) containing 450 μL of a cell culture media based on DMEM/F12 supplemented with different levels of alpha-ketoglutaric acid (Sigma), malic acid (Sigma), succinic acid (Sigma), oxaloacetic acid (Sigma), fumaric acid (Sigma), citric acid (Sigma) or sodium pyruvate (Sigma). […]
Recombinant Factor VII chromogenic activity in the cultures was determined as described for Example 1.

## N[C@@H](CCC(=O)N[C@@H](CS)C(=O)NCC(=O)O)C(=O)O [L-glutathione, (2S)-2-amino-5-[[(2R)-1-(carboxymethylamino)-1-oxo-3-sulfanylpropan-2-yl]amino]-5-oxopentanoic acid]
[1]; Example 1, reduced L-glutathione 0.01-15 mM in DMEM/F12-based medium, day 5 and day 7, at most concentrations tested, FIG. 1A
  effect on viable cell density: no effect on the viable cell density
[1]
  impact on viable cell density (VCD): only minor impact on the viable cell density
[2]; Example 1, reduced L-glutathione 0.01-15 mM, FIGS. 1B and 1C
  effect on chromogenic activity of FVII: increases chromogenic activity of FVII
[2]
  impact on yield and/or activity of FVII: enhances yield and/or activity of FVII

## CC(=O)C(=O)[O-].[Na+] [Sodium pyruvate, sodium pyruvate, reference compound]
[1]
  impact on viable cell density (VCD): only minor impact on the viable cell density
[2]; Example 2, TCA intermediates 0.06-60 mM, sodium pyruvate 0.01-10 mM, FIGS. 2B-8C
  effect on chromogenic activity of FVII: no effect on the chromogenic activity of FVII
[2]
  impact on yield and/or activity of FVII: no impact on yield and/or activity of FVII
